Reference: patent publication US11091478B2 (Fochon Pharmaceuticals, Ltd., priority 2017, dated 2021)

Key:
DOHH2 cells = test: Cell proliferation assay (MTS), DOHH2 cells, 120 h; type: cell-based; settings: Homo sapiens, DOHH-2, 120 h
Outline: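 RS4;11 and DOHH2 cells at 5000 cells/well in RPMI-1640 with 10% FBS were treated with compound at 1.5–10000 nM final, nine points, at 37 °C, 5% CO2. Exposure was 72 h for RS4;11 and 120 h for DOHH2. MTS was added for 2 h, absorbance read at 490/650 nm, and IC50 calculated.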

RS4;11 cells = test: Cell proliferation assay (MTS), RS4;11 cells, 72 h; type: cell-based; settings: Homo sapiens, RS4-11, 72 h
Text: Cell Proliferation Assays
MTS testing kit was purchased from Promega. The RPMI-1640, Fetal bovine serum and Penicillin-Streptomycin were purchased from Gibco. Dimethyl sulfoxide (DMSO) was purchased from Sigma.
To investigate whether a compound is able to inhibit the activity of BCL-2 in cells, a mechanism-based assay using DOHH2 (DSMZ No.® ACC 47) and RS4;11 (ATCC® CRL-1873™) cell was developed. In this assay, inhibition of Bcl-2 was detected by the inhibition of DOHH2 cells proliferation. DOHH2 cells were cultured in culture flasks to 40-80% confluence in RPMI-1640 plus 10% fetal bovine serum. Cells were collected and plated onto 96-well plates at desired cell density (5000 cells/well). Plates were incubated overnight at 37° C., with 5% CO2 to adhere. Compounds were added to the plates, and the final compound concentrations were 10000, 3333, 1111, […], 124, 41, 14, 4.6 and 1.5 nM. Plates plated with DOHH2 or RS4;11 cells were placed at 37° C., with 5% CO2 for 120 h (DOHH2) or 72 h (RS4;11) respectively. 20 μl MTS/100 μl medium mixture solution were added to each well and incubate the plates for exactly 2 hours. The reaction was stopped by adding 25 μl 10% SDS per well. Measure absorbance at 490 nm and 650 nm (reference wavelength). IC50 was calculated using GraphPad Prism 5.0.
Select compounds prepared as described above were assayed according to the biological procedures described herein.

Structure (SMILES) | IC50 (DOHH2 cells) [nM] | IC50 (RS4;11 cells) [nM]
CC1(C)CCC(CN2CCN(c3ccc(C(=O)NS(=O)(=O)c4cc5c(c([N+](=O)[O-])c4)N[C@H](CCN4CCOCC4)C5)c(Oc4cnc5[nH]ccc5c4)c3)CC2)=C(c2ccc(Cl)cc2)C1 [Example 1-2, (S)-2-((1H-pyrrolo[2,3-b]pyridin-5-yl)oxy)-4-(4-((4′-chloro-5,5-dimethyl-3,4,5,6-tetrahydro-[1,1′-biphenyl]-2-yl)methyl)piperazin-1-yl)-N-((2-(2-morpholinoethyl)-7-nitroindolin-5-yl)sulfonyl)benzamide] | 79 | 38
CN1CCN(C[C@@H]2Cc3cc(S(=O)(=O)NC(=O)c4ccc(N5CCN(CC6=C(c7ccc(Cl)cc7)CC(C)(C)CC6)CC5)cc4Oc4cnc5[nH]ccc5c4)cc([N+](=O)[O-])c3N2)CC1 [Example 1-3, (S)-2-((1H-pyrrolo[2,3-b]pyridin-5-yl)oxy)-4-(4-((4′-chloro-5,5-dimethyl-3,4,5,6-tetra-hydro-[1,1′-biphenyl]-2-yl)methyl)piperazin-1-yl)-N-((2-((4-methylpiperazin-1-yl)meth-yl)-7-nitroindolin-5-yl)sulfonyl)benzamide] | 20 | 8
CN(C)C[C@@H]1Cc2cc(S(=O)(=O)NC(=O)c3ccc(N4CCN(CC5=C(c6ccc(Cl)cc6)CC(C)(C)CC5)CC4)cc3Oc3cnc4[nH]ccc4c3)cc([N+](=O)[O-])c2N1 [Example 1-5] | 211 | 51
CN1CCN(C[C@H]2Cc3cc(S(=O)(=O)NC(=O)c4ccc(N5CCN(CC6=C(c7ccc(Cl)cc7)CC(C)(C)CC6)CC5)cc4Oc4cnc5[nH]ccc5c4)cc([N+](=O)[O-])c3N2)CC1 [Example 1-7, (R)-2-((1H-pyrrolo[2,3-b]pyridin-5-yl)oxy)-4-(4-((4′-chloro-5,5-dimethyl-3,4,5,6-tetra-hydro-[1,1′-biphenyl]-2-yl)methyl)piperazin-1-yl)-N-((2-((4-methylpiperazin-1-yl)meth-yl)-7-nitroindolin-5-yl)sulfonyl)benzamide] | 26 | 3
CC1(C)CCC(CN2CCN(c3ccc(C(=O)NS(=O)(=O)c4cc5c(c([N+](=O)[O-])c4)N[C@@H](CN4CCOCC4)C5)c(Oc4cnc5[nH]ccc5c4)c3)CC2)=C(c2ccc(Cl)cc2)C1 [Example 1-8, (R)-2-((1H-pyrrolo[2,3-b]pyridin-5-yl)oxy)-4-(4-((4′-chloro-5,5-dimethyl-3,4,5,6-tetra-hydro-[1,1′-biphenyl]-2-yl)methyl)piperazin-1-yl)-N-((2-(morpholinomethyl)-7-nitro-indolin-5-yl)sulfonyl)benzamide] | 27 | 1
CC1(C)CCC(CN2CCN(c3ccc(C(=O)NS(=O)(=O)c4cc5c(c([N+](=O)[O-])c4)N[C@@H](CN4CCC(C)(O)CC4)C5)c(Oc4cnc5[nH]ccc5c4)c3)CC2)=C(c2ccc(Cl)cc2)C1 [Example 1-9, (R)-2-((1H-pyrrolo[2,3-b]pyridin-5-yl)oxy)-4-(4-((4′-chloro-5,5-dimethyl-3,4,5,6-tetra-hydro-[1,1′-biphenyl]-2-yl)methyl)piperazin-1-yl)-N-((2-((4-hydroxy-4-methylpiperidin-1-yl)methyl)-7-nitroindolin-5-yl)sulfonyl) benzamide] | 66 | 80
CN(C)C[C@H]1Cc2cc(S(=O)(=O)NC(=O)c3ccc(N4CCN(CC5=C(c6ccc(Cl)cc6)CC(C)(C)CC5)CC4)cc3Oc3cnc4[nH]ccc4c3)cc([N+](=O)[O-])c2N1 [Example 1-10, (R)-2-((1H-pyrrolo[2,3-b]pyridin-5-yl)oxy)-4-(4-((4′-chloro-5,5-dimethyl-3,4,5,6-tetra-hydro-[1,1′-biphenyl]-2-yl)methyl)piperazin-1-yl)-N-((2-((dimethylamino)methyl)-7-nitroindolin-5-yl)sulfonyl)benzamide] | 33 | 16
CC1(C)CCC(CN2CCN(c3ccc(C(=O)NS(=O)(=O)c4cc5c(c([N+](=O)[O-])c4)N[C@@H](CO)C5)c(Oc4cnc5[nH]ccc5c4)c3)CC2)=C(c2ccc(Cl)cc2)C1 [Example 1-11, (R)-2-((1H-pyrrolo[2,3-b]pyridin-5-yl)oxy)-4-(4-((4′-chloro-5,5-dimethyl-3,4,5,6-tetra-hydro-[1,1′-biphenyl]-2-yl)methyl)piperazin-1-yl)-N-((2-(hydroxymethyl)-7-nitroindolin-5-yl)sulfonyl)benzamide] | 154 | 69
CN1CCN(CC[C@@H]2Cc3cc(S(=O)(=O)NC(=O)c4ccc(N5CCN(CC6=C(c7ccc(Cl)cc7)CC(C)(C)CC6)CC5)cc4Oc4cnc5[nH]ccc5c4)cc([N+](=O)[O-])c3N2)CC1 [Example 1-12, (S)-2-((1H-pyrrolo[2,3-b]pyridin-5-yl)oxy)-4-(4-((4′-chloro-5,5-dimethyl-3,4,5,6-tetra-hydro-[1,1′-biphenyl]-2-yl)methyl)piperazin-1-yl)-N-((2-(2-(4-methylpiperazin-1-yl)eth-yl)-7-nitroindolin-5-yl)sulfonyl)benzamide] | 299 | 58
CC1(C)CCC(CN2CCN(c3ccc(C(=O)NS(=O)(=O)c4cc5c(c([N+](=O)[O-])c4)N[C@H](CCN4CCC(C)(O)CC4)C5)c(Oc4cnc5[nH]ccc5c4)c3)CC2)=C(c2ccc(Cl)cc2)C1 [Example 1-13, (S)-2-((1H-pyrrolo[2,3-b]pyridin-5-yl)oxy)-4-(4-((4′-chloro-5,5-dimethyl-3,4,5,6-tetra-hydro-[1,1′-biphenyl]-2-yl)methyl)piperazin-1-yl)-N-((2-(2-(4-hydroxy-4-methylpiper-idin-1-yl)ethyl)-7-nitroindolin-5-yl)sulfonyl) benzamide] | 91 | 74
CN(C)CC[C@@H]1Cc2cc(S(=O)(=O)NC(=O)c3ccc(N4CCN(CC5=C(c6ccc(Cl)cc6)CC(C)(C)CC5)CC4)cc3Oc3cnc4[nH]ccc4c3)cc([N+](=O)[O-])c2N1 [Example 1-14, (S)-2-((1H-pyrrolo[2,3-b]pyridin-5-yl)oxy)-4-(4-((4′-chloro-5,5-dimethyl-3,4,5,6-tetra-hydro-[1,1′-biphenyl]-2-yl)methyl)piperazin-1-yl)-N-((2-(2-(dimethylamino)ethyl)-7-nitroindolin-5-yl)sulfonyl)benzamide] | 57 | 52
CN1CCN(CC[C@H]2Cc3cc(S(=O)(=O)NC(=O)c4ccc(N5CCN(CC6=C(c7ccc(Cl)cc7)CC(C)(C)CC6)CC5)cc4Oc4cnc5[nH]ccc5c4)cc([N+](=O)[O-])c3N2)CC1 [Example 1-15, (R)-2-((1H-pyrrolo[2,3-b]pyridin-5-yl)oxy)-4-(4-((4′-chloro-5,5-dimethyl-3,4,5,6-tetrahydro-[1,1′-biphenyl]-2-yl)methyl)piper-azin-1-yl)-N-((2-(2-(4-methylpiperazin-1-yl)ethyl)-7-nitroindolin-5-yl)sulfonyl) benzamide] | 50 | 15
CC1(C)CCC(CN2CCN(c3ccc(C(=O)NS(=O)(=O)c4cc5c(c([N+](=O)[O-])c4)N[C@@H](CCN4CCOCC4)C5)c(Oc4cnc5[nH]ccc5c4)c3)CC2)=C(c2ccc(Cl)cc2)C1 [Example 1-16, (R)-2-((1H-pyrrolo[2,3-b]pyridin-5-yl)oxy)-4-(4-((4′-chloro-5,5-dimethyl-3,4,5,6-tetra-hydro-[1,1′-biphenyl]-2-yl)methyl)piperazin-1-yl)-N-((2-(2-morpholinoethyl)-7-nitro-indolin-5-yl)sulfonyl)benzamide] | 73 | 16
CC1(C)CCC(CN2CCN(c3ccc(C(=O)NS(=O)(=O)c4cc5c(c([N+](=O)[O-])c4)N[C@@H](CCN4CCC(C)(O)CC4)C5)c(Oc4cnc5[nH]ccc5c4)c3)CC2)=C(c2ccc(Cl)cc2)C1 [Example 1-17, (R)-2-((1H-pyrrolo[2,3-b]pyridin-5-yl)oxy)-4-(4-((4′-chloro-5,5-dimethyl-3,4,5,6-tetra-hydro-[1,1′-biphenyl]-2-yl)methyl)piperazin-1-yl)-N-((2-(2-(4-hydroxy-4-methylpiper-idin-1-yl)ethyl)-7-nitroindolin-5-yl)sulfonyl) benzamide] | 61 | 56
CN(C)CC[C@H]1Cc2cc(S(=O)(=O)NC(=O)c3ccc(N4CCN(CC5=C(c6ccc(Cl)cc6)CC(C)(C)CC5)CC4)cc3Oc3cnc4[nH]ccc4c3)cc([N+](=O)[O-])c2N1 [Example 1-18, (R)-2-((1H-pyrrolo[2,3-b]pyridin-5-yl)oxy)-4-(4-((4′-chloro-5,5-dimethyl-3,4,5,6-tetra-hydro-[1,1′-biphenyl]-2-yl)methyl)piperazin-1-yl)-N-((2-(2-(dimethylamino)ethyl)-7-nitroindolin-5-yl)sulfonyl)benzamide] | 5 | 18
